What is called Ki is the equilibrium dissociation constant of an inhibitor or competing ligand from its target. Low values mean tighter binding, high ones weaker binding. In general, IC50 refers to the concentration that gives 50% inhibition. In general, pIC50 refers to the IC50 on a negative log10 scale, so that one unit is a factor of ten. Low values mean a high IC50, high ones a low IC50.

Each structure is given as a SMILES string. Like-named read-outs stand apart in the source and are kept apart here.

The source of these data is publication PMC5874726, “Comparison Study of Two Differently Clicked ^18F-Folates—Lipophilicity Plays a Key Role” (Pharmaceuticals, 2018).

The conditions of data set [1]: pH 2, reversed-phase HPLC. The procedure: The octanol-water (buffer) partition coefficient of ^18F-Alakyne and ^18F-Ala-folate was determined using the standard shake-flask method. Relative lipophilicity (k’ values) was determined by HPLC with an isocratic acetonitrile-phosphoric acid buffer eluent system at pH 2.4 as described elsewhere.
A further data set concerns the target T1, folate receptor (FR) (Homo sapiens, UniProt P15328).
T1 construct: endogenous in cells; host or cells: KB cells (human, from the German Collection of Microorganisms and Cell Cultures)
The data set can be described thus: Displacement assay using KB cells and [^3H]folic acid. Format: binding.

On the set-up of data set [2]: method as in PMID 15745749. Conditions: pH 2, reversed-phase HPLC; cited from earlier work.

T1 sequence (P15328 25-257): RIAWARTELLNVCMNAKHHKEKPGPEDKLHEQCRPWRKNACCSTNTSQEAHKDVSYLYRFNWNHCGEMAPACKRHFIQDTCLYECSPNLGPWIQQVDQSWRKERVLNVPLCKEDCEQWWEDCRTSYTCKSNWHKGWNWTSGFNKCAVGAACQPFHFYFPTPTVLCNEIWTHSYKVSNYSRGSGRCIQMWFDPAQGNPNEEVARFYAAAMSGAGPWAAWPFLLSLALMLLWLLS

As for `Nc1nc2ncc(CNc3ccc(C(=O)NC(CCC(=O)NCCOCCOCCOCCn4cc(CNC(CF)C(=O)O)nn4)C(=O)O)cc3)nc2c(=O)[nH]1` (centres unmarked) [^19F-Ala-folate], the “k′ Value” in data set [1] is on record as 0.27. In addition, the inhibitory constant (Ki) on folate receptor (FR) (Cheng-Prusoff equation with Kd ([^3H]folic acid) = 1.0 nM) stood at 5.5 ± 0.4 nM. At folate receptor (FR) (KB-cells, [^3H]folic acid), the IC50 was found to be 6.4 ± 0.5 nM and the pIC50 was 8.20 ± 0.05.
Regarding `Nc1nc(=O)c2nc(CNc3ccc(C(=O)N[C@@H](CCC(=O)O)C(=O)O)cc3)cnc2[nH]1` [native folic acid, folic acid], the “k′ Value” in data set [2] is 0.3 [5].
